Laboratory results taken from a melting point compilation (Tetko et al.; mined from patent text by program, amines drawn as free bases though some values may be those of a salt).

Q: For `CCCCc1ncc(/C=C(/C=C/C(=O)O)Cc2cccs2)n1Cc1ccccc1Cl`, which melting point is on record?
A: The melting point was 191 to 192 °C.

Q: Which melting point does the source give for `CCC1=NN=C(c2ccc(OC)c(OC)c2)c2cc(OC)c(OC)cc2C1C` (stereo not drawn) here?
A: Its melting point is 157 to 158 °C.

Q: Which melting point does the source give for `O=C(Nc1ccc(N2CCCC2)nc1)c1cc2cc(C(F)(F)F)cnc2n1Cc1cccc(F)c1` here?
A: Its melting point is 234 to 236 °C.

Q: Which melting point does the source give for `CC(=O)n1ccc(-c2ccc(F)cc2)c1-c1ccc(S(C)(=O)=O)cc1` here?
A: The melting point was 211 to 214 °C.

Q: For `N#CCCN1CC2C(C1)C2Nc1ncc2cc(-c3ccccc3Cl)c(=O)n(C3CC3)c2n1` (stereo not drawn), which melting point is on record?
A: Its melting point is 150 to 152 °C.

Q: With `COc1ccc(-n2c(=O)c(CCCO)c(O)c3cccnc32)cc1` as the molecule, how does the melting point read?
A: The melting point was 229 to 231 °C.

Q: For `O=C(Nc1nc2ccc(Cl)cc2s1)c1ccc2cccnc2c1O`, which melting point is on record?
A: The melting point was greater than 320 °C.

Q: For `CCNC(=O)n1nc(Oc2ccc([N+](=O)[O-])c(OCC)c2)cc1C`, which melting point is on record?
A: The melting point was 110 to 112 °C.

Q: With `CN(O)C(=O)Nc1cccc(NC(=O)N(C)O)c1` as the molecule, how does the melting point read?
A: The melting point was 146 to 147 °C.

Q: With `O=C(c1ccccc1F)c1cc(Cl)ccc1I` as the molecule, how does the melting point read?
A: The melting point was 78 to 81 °C.

Q: With `COc1cc(CCC2=NNC(=O)CC2)cc(OC)c1OC` as the molecule, how does the melting point read?
A: Its melting point is 116 to 117 °C.

Q: Which melting point does the source give for `Cc1ccc(N2CCN(S(=O)(=O)c3cccc(/C=C/C(=O)NO)c3)CC2C)cc1` (stereo not drawn) here?
A: Its melting point is 186 °C.

Q: For `CN(Cc1ncco1)C1CCCN(C(=O)c2ccc(Nc3nccc(Nc4ccc(F)cc4)n3)cc2)C1` (stereo not drawn), which melting point is on record?
A: The melting point was 155 to 157 °C.

Q: For `COC(=O)C(CC(C)C)NC(=O)C(C)NC(=O)OCc1ccccc1` (stereo not drawn), which melting point is on record?
A: The melting point was 65 to 68 °C.

Q: With `N#Cc1ccc(-c2ccc(C(CCC(=O)O)=NO)cc2)cc1` as the molecule, how does the melting point read?
A: Its melting point is 157 to 159 °C.

Q: For `CC[C@H](C)[C@H](NC(=O)OCc1ccccc1)C(=O)N[C@@H](C=O)Cc1c[nH]c2ccccc12`, which melting point is on record?
A: Its melting point is 163 to 164 °C.

Q: For `O=C(O)CCCc1ccc(C(NS(=O)(=O)c2ccc(Cl)cc2)C2CCCCC2)cc1` (single isomer, unassigned; (+)), which melting point is on record?
A: The melting point was 165 to 166 °C.

Q: Which melting point does the source give for `Oc1ccc([C@@H]2CCc3cc(O)ccc3[C@@H]2Cn2ccnc2)cc1` (relative stereo) here?
A: Its melting point is 238 °C.

Q: For `C=CCNc1cc(C(=O)O)cc(S(N)(=O)=O)c1-c1ccccc1`, which melting point is on record?
A: The melting point was 169 to 172 °C.

Q: Which melting point does the source give for `Cc1cccc(NC(=O)NCC(=O)N(CC(=O)NCC2CC2)c2ccccc2)c1` here?
A: Its melting point is 168 °C.

Q: Which melting point does the source give for `CCOC(=O)CC(=O)C=CNc1cc(C)no1` here?
A: The melting point was 93 to 95 °C.

Q: Which melting point does the source give for `Fc1ccc(NC(=S)c2ccccn2)cc1Cn1ccnc1` here?
A: Its melting point is 154 to 156 °C.

Q: Which melting point does the source give for `CC(C)(C)OC(=O)CON=C(C(=O)O)c1cccc(NC=O)n1` here?
A: Its melting point is 162 to 168 °C.

Q: Which melting point does the source give for `CC(C)(C)OC(=O)NC1CCN(CC23CC(c4ccccc42)c2ccccc23)CC1` here?
A: The melting point was 155 to 160 °C.

Q: Which melting point does the source give for `Cn1nc(Sc2cc(C(F)(F)F)ccc2C#N)n(C)c1=O` here?
A: The melting point was 113 °C.

Q: With `N#Cc1ccc(CC23CCCN2C(=O)N(c2cc(Cl)cc(-n4cccc4C=O)c2)C3=O)cc1` (stereo not drawn) as the molecule, how does the melting point read?
A: Its melting point is 110 °C.

Q: With `Cc1nc(NC(=O)c2cnn3c(C(F)F)cc(-c4ccc(C(F)(F)F)cc4)nc23)sc1S(=O)(=O)NC(C)(CO)CO` as the molecule, how does the melting point read?
A: The melting point was 248 °C.

Q: With `CCOC(=O)c1cnc2c(SCN3CCSCC3)cccn2c1=O` as the molecule, how does the melting point read?
A: Its melting point is 128 to 130 °C.

Q: With `CCOC(=O)c1cc(=O)c(O)c(-c2ccc(Cl)cc2)o1` as the molecule, how does the melting point read?
A: Its melting point is 157 to 159 °C.

Q: For `CSc1nn(-c2c(Cl)cc(C(F)(F)F)cc2Cl)nc1C`, which melting point is on record?
A: Its melting point is 38 to 40 °C.

Q: With `O=c1c(Br)c(OCc2ccccc2C(F)(F)F)ccn1Cc1ccccc1` as the molecule, how does the melting point read?
A: Its melting point is 133 to 134 °C.

Q: Which melting point does the source give for `O=C(N[C@@H](Cc1ccc2ccccc2c1)[C@H](O)CCl)OCc1ccccc1` here?
A: Its melting point is 173 to 174 °C.

Q: With `CC(C)CCC(=O)CC1c2ccccc2C(=O)N1c1ccc2ccc(Cl)nc2n1` (stereo not drawn) as the molecule, how does the melting point read?
A: Its melting point is 172 °C.

Q: For `Cc1cc(C)cc(NC(=O)CN2CCN(c3ncccc3C#N)CC2)c1`, which melting point is on record?
A: The melting point was 139 to 140 °C.

Q: With `ClCc1cc(-c2ccccc2)no1` as the molecule, how does the melting point read?
A: The melting point was 69 to 70 °C.

Q: Which melting point does the source give for `CCOC(=O)c1c(CN(CC)CC)nc2sc3c(c2c1-c1ccc(OC)c(OC)c1)CCN(C(=O)c1ccc(Cl)cc1)C3` here?
A: The melting point was 96 to 98 °C.

Q: Which melting point does the source give for `N#CC(C#N)=CN(N=C(C#N)C#N)c1ccc(Br)cc1` here?
A: Its melting point is 191 to 192 °C.

Q: Which melting point does the source give for `CCOC(=O)c1ccc(-c2csc(-c3ccc(C(F)(F)F)cc3)n2)cc1` here?
A: The melting point was 163 to 164 °C.

Q: For `O=C(CCCOc1cccc(CNC(=O)c2nc3ccccc3c(=O)[nH]2)c1)Nc1nc[nH]n1`, which melting point is on record?
A: The melting point was 189 to 190 °C.

Q: With `O=C(NC(=O)c1c(Cl)cccc1Cl)Nc1ccc(OC(F)(F)F)cc1` as the molecule, how does the melting point read?
A: The melting point was 202 °C.

Q: Which melting point does the source give for `CNC(=O)c1ccc(-c2cnc3[nH]c(=O)n(CC4CCOCC4)c3n2)cc1` here?
A: The melting point was 328 to 330 °C.

Q: With `CC(C)Oc1c(C(=O)O)sc2c1CSCC2` as the molecule, how does the melting point read?
A: Its melting point is 148 to 149 °C.

Q: For `Cc1nnc(N(Cc2ccccc2)C(=O)Cc2ccccc2)s1`, which melting point is on record?
A: Its melting point is 128 °C.

Q: With `Cn1c(=O)c2[nH]c(/C=C/c3ccc4c(c3)OCO4)nc2n(C)c1=O` as the molecule, how does the melting point read?
A: Its melting point is greater than 275 °C.

Q: With `O=C1c2ccccc2C(=O)c2sc(-c3ccccc3)nc21` as the molecule, how does the melting point read?
A: Its melting point is 249 °C.

Q: With `Cn1c(CCc2ccc(C#N)cc2)nc2cc(NS(=O)(=O)c3ccccc3)ccc21` as the molecule, how does the melting point read?
A: Its melting point is 222 to 225 °C.

Q: With `C[N+]([O-])=NNc1cccnc1` as the molecule, how does the melting point read?
A: Its melting point is 95 to 97 °C.

Q: For `COc1cc(Nc2nccc(-c3cccnc3)n2)cc(OC)c1OC`, which melting point is on record?
A: Its melting point is 155 °C.

Q: For `Oc1c(F)ccc(-c2c3ccccc3c(Br)c3sc4ccccc4c23)c1F`, which melting point is on record?
A: The melting point was 180 to 182 °C.

Q: With `O=C(NCl)c1c(C(F)(F)F)cc(Cl)nc1Cl` as the molecule, how does the melting point read?
A: The melting point was 136 to 138 °C.

Q: With `Nc1sc(/C=C/CC2CCCCC2)c(CN(C2CCCCC2)C2CCCCC2)c1C(=O)c1ccc(Cl)cc1` as the molecule, how does the melting point read?
A: Its melting point is 147 to 150 °C.

Q: For `N#CCOC(=O)c1ccc2nc3ccc(O)cc3c(=O)n2c1`, which melting point is on record?
A: Its melting point is 260 to 262 °C.

Q: With `O=C(C=Cc1ccccn1)Nc1nnn[nH]1` as the molecule, how does the melting point read?
A: The melting point was 275 to 276 °C.

Q: Which melting point does the source give for `COC(=O)C(C)(C)OCc1cc2cc(Cl)ccc2n1S(=O)(=O)c1ccc2c(c1)CCN2C(C)=O` here?
A: The melting point was 128 to 130 °C.

Q: With `O=C(Nc1ccc(-n2nc(C(F)(F)F)cc2C(F)(F)F)cc1)c1cc(Cl)cnc1Cl` as the molecule, how does the melting point read?
A: The melting point was 228 to 229 °C.

Q: Which melting point does the source give for `COc1cc(OC)cc(N2CCN(C(=O)Nc3cc(C(C)(C)O)c(C)nc3OC)CC2)c1` here?
A: Its melting point is 146 to 148 °C.

Q: For `CC(C)NCC(O)COc1cccc(C2=NNC(=O)CC2)c1` (stereo not drawn), which melting point is on record?
A: Its melting point is 137 to 141 °C.

Q: With `CCc1cc2c(cc1OC(C)=O)CCC1C2CCC2(C)C(C#N)=CCC12` (stereo not drawn) as the molecule, how does the melting point read?
A: The melting point was 176 to 177 °C.

Q: Which melting point does the source give for `Cn1ccc2ccc(N3Cc4c(cccc4[N+](=O)[O-])C3=O)cc21` here?
A: The melting point was 225 to 262 °C.

Q: Which melting point does the source give for `CC(C)(C)OC(=O)c1ncn2c1C1C=CCN1C(=O)c1c(Cl)cccc1-2` (stereo not drawn) here?
A: The melting point was 227 to 229 °C.

Q: For `CCCCCCCCCCCCCCCCCCOc1ccc(C(=O)OC)c(O)c1`, which melting point is on record?
A: The melting point was 61 to 64 °C.

Q: For `COc1cc(N(C)C)nc(NC(=O)NS(=O)(=O)c2ccccc2CCC(F)(F)F)n1`, which melting point is on record?
A: The melting point was 183 to 184 °C.

Q: With `CCN(CC)C(=O)C(C)N1C(=O)C(NC(=O)OCc2ccccc2)N=C(c2ccccc2)c2ccccc21` (stereo not drawn) as the molecule, how does the melting point read?
A: The melting point was 170 to 171 °C.

Q: For `COc1ccc(S(=O)(=O)N2C(=O)C(c3ccccc3OC)(N3C[C@H](OC)C[C@H]3C(=O)N(C)C)c3cc(Cl)ccc32)c(OC)c1` (stereo partly drawn), which melting point is on record?
A: Its melting point is 189 to 191 °C.

Q: For `CCCCn1nnnc1-c1c(O)ccc(-c2cccc(C(=O)O)c2)c1O`, which melting point is on record?
A: Its melting point is 261 to 264 °C.

Q: With `COCC(=O)C1CCC2C3CCC4CC(OC(C)=O)CCC4(C)C3C(=O)CC12C` (stereo not drawn) as the molecule, how does the melting point read?
A: The melting point was 93 °C.

Q: For `NNC(=O)C(Cl)c1cccc(Cl)n1` (stereo not drawn), which melting point is on record?
A: Its melting point is 176 to 177 °C.

Q: With `Cc1cc(-c2cccs2)ccc1C(=O)c1cccc2c1Nc1ncccc1CN2` as the molecule, how does the melting point read?
A: Its melting point is 118 to 120 °C.
